Test results published in patent publication US20090291945A1, “CYSTEINE PROTEASE INHIBITORS” (Teijin Pharma Limited, priority 2008, published 2009).

Assays:
cathepsin K = molecular target: T1, cathepsin K (Homo sapiens, UniProt P43235); experiment: Cathepsin K inhibitory activity (fluorescent substrate Z-Leu-Arg-MCA); type: biochemical; conditions: enzyme expressed in HEK293T, 15 min preincubation, 30 min reaction at room temperature, pH 5.5; for IC50: read-out: Activity Intensity (cathepsin K inhibitory activity, pIC50 class) (converted)
T1 construct: the active enzyme was obtained as the enzyme fraction by using detergent containing lysis buffer; made in house; host or cells: HEK293T (GenHunter Corporation), transient expression; detergent lysate used as enzyme fraction
T1 sequence (P43235 115-329): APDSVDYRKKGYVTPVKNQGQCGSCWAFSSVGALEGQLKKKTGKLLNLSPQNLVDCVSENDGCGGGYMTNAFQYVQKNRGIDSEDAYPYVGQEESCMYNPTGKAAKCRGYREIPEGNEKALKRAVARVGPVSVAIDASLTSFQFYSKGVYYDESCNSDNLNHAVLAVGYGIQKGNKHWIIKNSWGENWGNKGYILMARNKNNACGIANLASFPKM
Procedure, shortened: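 Enzyme was HEK293T-expressed cathepsin K in pH 5.5 acetate buffer with 2 mM DTT, preincubated 15 min at room temperature with compound. Reaction started with Z-Leu-Arg-MCA (solution prepared at 10 μM), run 30 min, and AMC fluorescence read at 355/460 nm. IC50 taken from the curve of % inhibition vs DMSO.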

[1] = Metabolic stability test using human liver microsome; type: in vitro ADME; conditions: NADPH, 37° C., 25 minutes versus 0 minute, LC/MS peak area
Protocol: For the compounds synthesized according to the method of the above Examples and the compounds of formula (B) (the compounds disclosed in WO2002/070517), the metabolic stability test using the human liver microsome was performed and the residual rate of each compound was calculated.
To a human liver microsome solution (950 μL) was added a test compound solution (10 μL, 100 μM, acetonitrile solution) on an ice bath and the solution was divided into two equal parts, solution A and solution B. Note that the composition of the human liver microsome solution was as follows.
20 mg/mL protein human liver microsome (Xenotech LLC Lenexa, US): 10 μL 500 mM potassium phosphate buffer solution (pH 7.4): 200 μL 10 mM EDTA solution: 100 μL 60 mM MgCl2 solution: 50 μL 100 mM glucose-6-phosphate solution: 50 μL 100 I.U./mL glucose-6-phosphate dehydrogenase solution: 10 μL purified water: 530 μL
To the solution A (480 μL) was added acetonitrile (500 μL) on an ice bath, and then 25 mM NADPH solution (20 μL) was added. After vortexing, the mixture was centrifuged (3,000 rpm) at 4° C. for 10 minutes, and the supernatant was taken as the sample at the reaction time of 0 minute.
To the solution B (480 μL) was added 25 mM NADPH solution (20 μL). The mixture was incubated at 37° C. for 25 minutes. The reaction was quenched with acetonitrile (500 μL) and vortexing. The mixture was centrifuged (3,000 rpm) at 4° C. for 10 minutes, and the supernatant was taken as the sample at the reaction time of 25 minutes.
LC/MS measurement was performed for the samples at the reaction time of 0 minute and the reaction time of 25 minutes. Based on the peak area of the target molecular weight in the MS measurement, the residual rate of the sample at the reaction time of 25 minutes to the sample at the reaction time of 0 minute was calculated in percentage.

Row | Structure (SMILES) | IC50 (cathepsin K) [nM] | Residual Rate at 25 minutes (%) [1] [%] | Activity Intensity (cathepsin K inhibitory activity, pIC50 class) (cathepsin K)
1 | CC(C)C[C@H](N[C@@H](c1ccccc1)C(F)(F)F)C(=O)N[C@@H](CCCCN)CNc1ccc(N2CCOCC2)cc1 [Compound 126] | ≤ 3.16 | 90 | –
2 | CC(C)C[C@H](N[C@@H](c1ccccc1)C(F)(F)F)C(=O)N[C@@H](CCCN)CNc1ccc(N2CCOCC2)cc1 [Compound 127] | 3.16 to 31.6 | 87 | –
3 | CC(C)C[C@H](N[C@@H](c1ccccc1)C(F)(F)F)C(=O)N[C@@H](CCN)CNc1ccc(N2CCOCC2)cc1 [Compound 129] | 3.16 to 31.6 | 75 | –
4 | CC(C)(F)C[C@H](N[C@@H](c1ccccc1)C(F)(F)F)C(=O)N[C@@H](CCN)CNc1ccc(N2CCOCC2)cc1 [Compound 130] | 3.16 to 31.6 | 85 | –
5 | CC[C@@H](CNc1ccc(OC(C)(C)C(=O)O)cc1OC)NC(=O)[C@H](CC(C)(C)F)N[C@@H](c1ccccc1)C(F)(F)F [Compound 131, 2-{4-[((2S)-2-{(2S)-2-[((1S)-2,2,2-trifluoro-1-phenylethyl)amino]-4-fluoro-4-methylpentanoylamino}butyl)amino]-3-methoxyphenoxy}-2-methylpropanoic acid] | 3.16 to 31.6 | 123 | –
6 | CC[C@@H](CNc1ccc(OC(C)C(=O)O)cc1OC)NC(=O)[C@H](CC(C)(C)F)N[C@@H](c1ccccc1)C(F)(F)F (stereo partly drawn) [Compound 140, 2-{4-[((2S)-2-{(2S)-2-[((1S)-2,2,2-trifluoro-1-phenylethyl)amino]-4-fluoro-4-methylpentanoylamino}butyl)amino]-3-methoxyphenoxy}propanoic acid] | 3.16 to 31.6 | 101 | –
7 | CC[C@@H](CNc1ccc(OC(F)(F)C(=O)O)cc1OC)NC(=O)[C@H](CC(C)(C)F)N[C@@H](c1ccccc1)C(F)(F)F [Compound 141] | 31.6 to 10000 | 70 | –
8 | CC[C@@H](CNc1ccc(OC(C)C(=O)O)cc1OC)NC(=O)[C@H](CC(C)(C)F)N[C@@H](c1ccccc1)C(F)(F)F (stereo partly shown) [Compound 142] | – | 96 | ++ (7.5≦pIC50<8.5: ++)
9 | CC[C@@H](CNc1ccc(N2CCC(C(=O)O)CC2)cc1)NC(=O)[C@H](CC(C)C)N[C@@H](c1ccccc1)C(F)(F)F [Compound 145] | ≤ 3.16 | 88 | –
10 | CC[C@@H](CNc1ccc(N2CCC(C(=O)O)CC2)cc1)NC(=O)[C@H](CC(C)(C)F)N[C@@H](c1ccccc1)C(F)(F)F [Compound 147] | ≤ 3.16 | 80 | –
11 | CC[C@@H](CNc1ccc(N2CCC[C@H](C(=O)O)C2)cc1)NC(=O)[C@H](CC(C)C)N[C@@H](c1ccccc1)C(F)(F)F [Compound 148] | ≤ 3.16 | 85 | –
12 | CC[C@@H](CNc1ccc(N2CCC[C@@H](C(=O)O)C2)cc1)NC(=O)[C@H](CC(C)C)N[C@@H](c1ccccc1)C(F)(F)F [Compound 149] | ≤ 3.16 | 87 | –
13 | CC[C@@H](CNc1ccc(N2CCO[C@@H](C(=O)O)C2)cc1)NC(=O)[C@H](CC(C)C)N[C@@H](c1ccccc1)C(F)(F)F [Compound 150] | ≤ 3.16 | 96 | –
14 | CC[C@@H](CNc1ccc(N2CCC[C@H](C(=O)O)C2)cc1)NC(=O)[C@H](CC(C)(C)F)N[C@@H](c1ccccc1)C(F)(F)F [Compound 151] | ≤ 3.16 | 90 | –
15 | CC[C@@H](CNc1ccc(N2CCC[C@@H](C(=O)O)C2)cc1)NC(=O)[C@H](CC(C)(C)F)N[C@@H](c1ccccc1)C(F)(F)F [Compound 152] | ≤ 3.16 | 88 | –
16 | CC[C@@H](CNc1ccc(N2CCC(C(=O)O)CC2)cc1)NC(=O)[C@H](CC(C)C)N[C@@H](Cc1ccccc1)C(F)(F)F [Compound 153] | 3.16 to 31.6 | 53 | –
17 | CC[C@@H](CNc1ccc(N2CCC(C)(C(=O)O)CC2)cc1)NC(=O)[C@H](CC(C)C)N[C@@H](c1ccccc1)C(F)(F)F [Compound 154] | ≤ 3.16 | 74 | –
